Patent US20150342954A1, “2-BENZYL, 3-(PYRIMIDIN-2-YL) SUBSTITUTED PYRAZOLES USEFUL AS SGC STIMULATORS” (IRONWOOD PHARMACEUTICALS, INC., priority 2011, published 2015)

Columns and labels:
[1] = target: T1, Human soluble guanylate cyclase enzyme (hsGC) (Homo sapiens, UniProt Q02108+Q02153); assay: Purified human sGC enzyme synergy assay in the presence of 1 μM sodium nitroprusside (SNP); format: biochemical; settings: compound at 30 μM, presence of 1 μM SNP; Table 5A
T1 construct: purchased Enzo Inc. ALX-201-177
T1 sequence (Q02153 1-619): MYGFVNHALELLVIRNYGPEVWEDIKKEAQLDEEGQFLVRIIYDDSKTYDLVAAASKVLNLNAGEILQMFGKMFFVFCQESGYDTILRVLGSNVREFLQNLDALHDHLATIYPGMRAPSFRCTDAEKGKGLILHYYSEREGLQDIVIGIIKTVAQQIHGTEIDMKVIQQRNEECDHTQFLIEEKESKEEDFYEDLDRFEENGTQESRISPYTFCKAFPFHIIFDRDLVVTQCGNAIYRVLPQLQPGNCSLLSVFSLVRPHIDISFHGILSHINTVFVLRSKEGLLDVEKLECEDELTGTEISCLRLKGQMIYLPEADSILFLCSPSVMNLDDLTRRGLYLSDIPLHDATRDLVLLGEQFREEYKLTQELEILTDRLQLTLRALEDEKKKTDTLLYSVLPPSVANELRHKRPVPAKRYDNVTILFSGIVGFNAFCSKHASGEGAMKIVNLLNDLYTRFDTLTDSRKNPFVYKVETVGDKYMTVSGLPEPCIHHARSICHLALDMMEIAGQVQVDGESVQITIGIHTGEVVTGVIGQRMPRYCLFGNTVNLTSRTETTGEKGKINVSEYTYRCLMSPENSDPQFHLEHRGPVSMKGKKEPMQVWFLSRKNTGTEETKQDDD
T1 sequence (Q02108 1-690): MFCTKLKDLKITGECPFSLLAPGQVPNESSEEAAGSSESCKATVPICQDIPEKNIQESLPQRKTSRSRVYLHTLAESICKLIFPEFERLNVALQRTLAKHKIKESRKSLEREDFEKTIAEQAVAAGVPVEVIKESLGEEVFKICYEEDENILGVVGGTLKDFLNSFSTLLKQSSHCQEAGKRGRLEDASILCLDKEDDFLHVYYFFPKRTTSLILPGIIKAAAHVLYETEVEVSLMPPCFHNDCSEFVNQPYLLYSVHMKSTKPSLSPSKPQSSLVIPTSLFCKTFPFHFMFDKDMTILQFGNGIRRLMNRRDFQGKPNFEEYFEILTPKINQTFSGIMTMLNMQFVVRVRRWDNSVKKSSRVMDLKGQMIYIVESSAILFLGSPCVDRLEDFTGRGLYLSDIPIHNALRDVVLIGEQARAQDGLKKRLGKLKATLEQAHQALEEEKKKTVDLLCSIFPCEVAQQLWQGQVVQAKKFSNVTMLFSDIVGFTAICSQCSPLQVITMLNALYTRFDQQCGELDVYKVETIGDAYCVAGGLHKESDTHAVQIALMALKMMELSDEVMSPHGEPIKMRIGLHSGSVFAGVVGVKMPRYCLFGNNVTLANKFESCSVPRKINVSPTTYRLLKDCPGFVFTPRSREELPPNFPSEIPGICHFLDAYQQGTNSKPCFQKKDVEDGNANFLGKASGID
Summary of the method: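 Purified hsGC (5 ng) incubated 30 min at 37 °C with compound (10 or 30 μM final) in Tris pH 8.0, 300 μM GTP, 1 mM IBMX, 2 mM MgCl2, with or without 1 μM SNP; stopped with cold methanol. cGMP quantified against standard curve; specific activity expressed as fold-change over DMSO control.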

[2] = test system: Thoracic aortic rings; assay: Alternative thoracic aortic rings assay (Example 5; original resting tension as 100% inhibition); settings: rat thoracic aortic rings contracted with phenylephrine; for Aortic Ring Percent Relaxation at 1 μM: compound at 1 μM; for Aortic Ring Percent Relaxation at 3 μM: compound at 3 μM; for Aortic Ring Percent Relaxation at 10 μM: compound at 10 μM; for EC50: read-out: Aortic Ring EC50
Procedure: Thoracic aortic rings were dissected from anesthetized (isoflurane) male Sprague-Dawley rats weighing 275-299 g. Tissues were immediately transferred to ice-cold Krebs-Henseleit solution, which had been aerated with 95% 02 and 5% CO2 for 30 minutes. Following removal of connective tissue, aortic sections were cut into 4 rings (˜2 mm each) and suspended on 2 L-shaped hooks, with one hook fixed at the bottom of the tissue bath (Schuler Organ Bath, Harvard Apparatus) and the other connected to a force transducer (F30 Force Transducer, Harvard Apparatus). Baths contained Krebs Henseleit solution (10 mL) heated to 37° C. and aerated with 95% 02 and 5% CO2. Rings were brought to an initial tension of 0.3-0.5 g and gradually raised to a resting tension of 1.0 g over 60 minutes. Rings were rinsed with Krebs Henseleit solution (heated to 37° C. and aerated with 95% 02 and 5% CO2) at 15 minute intervals until a stable baseline was obtained. Rings were considered to be stable after a resting tension of 1.0 g was maintained (for approximately 10 minutes) without need for adjustment. Rings were then contracted with 100 ng/mL phenylephrine by adding 100 μL of a 10 μg/mL phenylephrine stock solution. Tissues achieving a stable contraction were then treated in a cumulative, dose dependent manner with test compounds prepared in dimethylsulfoxide (DMSO). In some cases, tissues were rinsed three times over a 5 minute period with Krebs-Heinseleit's solution (heated to 37° C. and aerated with 95% 02 and 5% CO2), allowed to stabilize at baseline, and then used for characterization of other test articles or DMSO effects. All data were collected using the HSE-ACAD software provided by Harvard Apparatus. […] EC50 values were calculated from concentration-response curves generated with GraphPad Prism Software.
Biological Activity Measurement by the Thoracic Aortic Rings Assay
The biological data for some of a compound of Table I, in comparison with the known compound, BAY 41-2272, as the reference compound, determined by the thoracic aorta ring assay of Example 5 are presented in Table 6 below.

| SMILES | Enzyme Activity (increase at 30 μM with SNP) [1] | Aortic Ring Percent Relaxation at 1 μM [2] | Aortic Ring Percent Relaxation at 3 μM [2] | Aortic Ring Percent Relaxation at 10 μM [2] | EC50 [2] [µM] |
| --- | --- | --- | --- | --- | --- |
| Nc1nc(-c2cc(-c3ccon3)n(Cc3ccccc3F)n2)ncc1NC(=O)C1(c2ccccc2)CC1 [Compound 27] | D (10 or <20 fold increase) | F (80 to <100%) | G (100 to <120%) | G (100 to <120%) | < 2 |
| Nc1nc(-c2cc(-c3ccon3)n(Cc3ccccc3F)n2)ncc1NC(=O)C1(F)CC1 [Compound 35] | E (20 to 30 fold increase) | G (100 to <120%) | H (higher than 120%) | H (higher than 120%) | < 2 |
| Nc1nc(-c2cc(-c3ccon3)n(Cc3cccc(F)c3F)n2)ncc1NC(=O)C1(C(F)(F)F)CC1 [Compound 40] | D (10 or <20 fold increase) | G (100 to <120%) | G (100 to <120%) | G (100 to <120%) | < 2 |
